Laboratory results from patent US9302999B2, “Substituted triazoles as herbicides” (E. I. DU PONT DE NEMOURS AND COMPANY, priority 2012, dated 2016).

Experiments:
Type in all cases: in vivo
[1] = system: crabgrass, large (large crabgrass, Digitaria sanguinalis); assay: Test A pre-/postemergence: crabgrass, large
Summary of the method: (§1)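 Each species received preemergence soil-directed spraying and, at the same time, postemergence treatment of seedlings 2–10 cm tall. Formulation: non-phytotoxic solvent mixture including surfactant. Response assessed visually about ten days on, relative to untreated controls, 0–100 scale.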

[2] = system: foxtail, giant (giant foxtail, Setaria faberii); assay: Test A pre-/postemergence: foxtail, giant
Summary of the method: as §1

[3] = system: velvetleaf (Abutilon theophrasti); assay: Test A pre-/postemergence: velvetleaf; settings: for Velvetleaf plant response rating: visual rating on 0 to 100 scale (0 no effect, 100 complete control), approximately ten days
Summary of the method: as §1

[4] = system: wild oat (Avena fatua); assay: Test C pre-/postemergence: wild oat
Summary of the method: (§2)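 Preemergence on seeds in loam/sand, postemergence on 2–18 cm (1–4-leaf) plants in peat-based medium; compounds in non-phytotoxic solvent with surfactant. After 13–15 days in greenhouse, visual rating versus controls, 0 (no effect) to 100 (complete control).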

[5] = system: galium (catchweed bedstraw, Galium aparine); assay: Test C pre-/postemergence: galium
Summary of the method: as §2

[6] = system: corn (Zea mays); assay: Test C pre-/postemergence: corn
Summary of the method: as §2

[7] = system: johnsongrass (Sorghum halepense); assay: Test C pre-/postemergence: johnsongrass
Summary of the method: as §2

[8] = system: kochia (Kochia scoparia); assay: Test C pre-/postemergence: kochia
Summary of the method: as §2

[9] = system: lambsquarters (Chenopodium album); assay: Test C pre-/postemergence: lambsquarters
Summary of the method: as §2

[10] = system: pigweed (Amaranthus retroflexus); assay: Test C pre-/postemergence: pigweed
Summary of the method: as §2

[11] = system: soybean (Glycine max); assay: Test C pre-/postemergence: soybean
Summary of the method: as §2

[12] = system: chickweed (common chickweed, Stellaria media); assay: Test C postemergence: chickweed
Summary of the method: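 Pot-grown plants in peat/vermiculite medium sprayed postemergence at 2–18 cm height (1- to 4-leaf stage). Kept in greenhouse 13 to 15 days, then visually rated against untreated controls on a 0–100 scale (0 = no effect, 100 = complete control).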

[13] = Postemergence, 125 g ai/ha, 0 to 100 scale, 0 is no effect, 100 is complete control
[14] = Postemergence, 500 g ai/ha, visual rating on 0 to 100 scale (0 no effect, 100 complete control), approximately ten days
[15] = Preemergence, 125 g ai/ha, 0 to 100 scale where 0 is no effect and 100 is complete control
[16] = Preemergence, 500 g ai/ha, 0 to 100 scale (0 no effect, 100 complete control)
[17] = Postemergence, 31 g ai/ha, scale 0 to 100 (0 no effect, 100 complete control)
[18] = Postemergence, 62 g ai/ha, scale 0 to 100 (0 no effect, 100 complete control)
[19] = Postemergence, 125 g ai/ha, scale 0 to 100, 0 no effect, 100 complete control
[20] = Postemergence, 250 g ai/ha, scale 0 to 100
[21] = Preemergence, 31 g ai/ha, scale of 0 to 100, 0 is no effect, 100 is complete control
[22] = Preemergence, 62 g ai/ha, scale of 0 to 100, 0 is no effect, 100 is complete control
[23] = Preemergence, 125 g ai/ha, scale 0 to 100, 0 no effect, 100 complete control
[24] = Preemergence, 250 g ai/ha, scale 0 to 100, 0 no effect, 100 complete control
[25] = 31 g ai/ha, scale 0 to 100 (0 no effect, 100 complete control)
[26] = 62 g ai/ha, scale 0 to 100 (0 no effect, 100 complete control)
[27] = 125 g ai/ha, scale 0 to 100, 0 no effect, 100 complete control

## Cc1nn(-c2ccc(F)c(F)c2)nc1Oc1ccnc(C(F)(F)F)c1 [Compound 145]
[1]; [13]
  Crabgrass, Large plant response rating: 90
[1]; [14]
  Crabgrass, Large plant response rating: 90
[1]; [15]
  Plant response rating, Crabgrass, Large: 100
[1]; [16]
  Plant response rating, Crabgrass, Large: 100
[2]; [13]
  Foxtail, Giant plant response rating: 90
[2]; [14]
  Foxtail, Giant plant response rating: 100
[2]; [15]
  Plant response rating, Foxtail, Giant: 100
[2]; [16]
  Plant response rating, Foxtail, Giant: 100
[3]; [13]
  Plant response rating, Velvetleaf: 100
[3]; Postemergence, 500 g ai/ha
  Velvetleaf plant response rating: 100
[3]; [15]
  Plant response rating, Velvetleaf: 50
[3]; [16]
  Plant response rating, Velvetleaf: 80
[4]; [17]
  Plant response rating, Oat, Wild: 20
[4]; [18]
  Plant response rating, Oat, Wild: 40
[4]; [19]
  Plant response rating, Oat, Wild: 60
[4]; [20]
  Plant response rating, Oat, Wild: 80
[4]; [21]
  Plant response rating, Oat, Wild: 45
[4]; [22]
  Plant response rating, Oat, Wild: 70
[4]; [23]
  Plant response rating, Oat, Wild: 90
[4]; [24]
  Plant response rating, Oat, Wild: 90
[5]; [17]
  Plant response rating, Galium: 80
[5]; [18]
  Plant response rating, Galium: 80
[5]; [19]
  Plant response rating, Galium: 90
[5]; [20]
  Plant response rating, Galium: 95
[5]; [21]
  Plant response rating, Galium: 60
[5]; [22]
  Plant response rating, Galium: 98
[5]; [23]
  Plant response rating, Galium: 100
[5]; [24]
  Plant response rating, Galium: 100
[6]; [17]
  Plant response rating, Corn: 35
[6]; [18]
  Plant response rating, Corn: 45
[6]; [20]
  Plant response rating, Corn: 50
[6]; [21]
  Plant response rating, Corn: 0
[6]; [22]
  Plant response rating, Corn: 10
[6]; [23]
  Plant response rating, Corn: 25
[6]; [24]
  Plant response rating, Corn: 60
[7]; [17]
  Plant response rating, Johnsongrass: 10
[7]; [18]
  Plant response rating, Johnsongrass: 20
[7]; [19]
  Plant response rating, Johnsongrass: 70
[7]; [20]
  Plant response rating, Johnsongrass: 75
[7]; [21]
  Plant response rating, Johnsongrass: 0
[7]; [22]
  Plant response rating, Johnsongrass: 35
[7]; [23]
  Plant response rating, Johnsongrass: 100
[7]; [24]
  Plant response rating, Johnsongrass: 100
[8]; [17]
  Plant response rating, Kochia: 85
[8]; [18]
  Plant response rating, Kochia: 85
[8]; [19]
  Plant response rating, Kochia: 90
[8]; [20]
  Plant response rating, Kochia: 95
[8]; [21]
  Plant response rating, Kochia: 50
[8]; [22]
  Plant response rating, Kochia: 90
[8]; [23]
  Plant response rating, Kochia: 98
[8]; [24]
  Plant response rating, Kochia: 98
[9]; [17]
  Plant response rating, Lambsquarters: 95
[9]; [18]
  Plant response rating, Lambsquarters: 95
[9]; [19]
  Plant response rating, Lambsquarters: 95
[9]; [20]
  Plant response rating, Lambsquarters: 95
[9]; [21]
  Plant response rating, Lambsquarters: 55
[9]; [22]
  Plant response rating, Lambsquarters: 85
[9]; [23]
  Plant response rating, Lambsquarters: 95
[9]; [24]
  Plant response rating, Lambsquarters: 98
[10]; [17]
  Plant response rating, Pigweed: 85
[10]; [18]
  Plant response rating, Pigweed: 98
[10]; [19]
  Plant response rating, Pigweed: 98
[10]; [20]
  Plant response rating, Pigweed: 98
[10]; [21]
  Plant response rating, Pigweed: 90
[10]; [22]
  Plant response rating, Pigweed: 98
[10]; [23]
  Plant response rating, Pigweed: 98
[10]; [24]
  Plant response rating, Pigweed: 100
[11]; [17]
  Plant response rating, Soybean: 50
[11]; [18]
  Plant response rating, Soybean: 50
[11]; [19]
  Plant response rating, Soybean: 55
[11]; [20]
  Plant response rating, Soybean: 60
[11]; [22]
  Plant response rating, Soybean: 5
[11]; [23]
  Plant response rating, Soybean: 5
[11]; [24]
  Plant response rating, Soybean: 10
[12]; [25]
  Plant response rating, Chickweed: 75
[12]; [26]
  Plant response rating, Chickweed: 85
[12]; [27]
  Plant response rating, Chickweed: 98
[12]; 250 g ai/ha, scale 0 to 100
  Plant response rating, Chickweed: 100

## CCCc1nn(-c2ccc(F)cc2)nc1Cc1ccnc(C(F)(F)F)c1 [Compound 153]
[1]; [13]
  Plant response rating, Crabgrass, Large: 100
[1]; [14]
  Crabgrass, Large plant response rating: 100
[1]; [15]
  Plant response rating, Crabgrass, Large: 100
[1]; [16]
  Plant response rating, Crabgrass, Large: 100
[2]; [13]
  Plant response rating, Foxtail, Giant: 90
[2]; [14]
  Foxtail, Giant plant response rating: 100
[2]; [15]
  Plant response rating, Foxtail, Giant: 100
[2]; [16]
  Plant response rating, Foxtail, Giant: 100
[3]; [13]
  Plant response rating, Velvetleaf: 100
[3]; Postemergence, 500 g ai/ha
  Velvetleaf plant response rating: 100
[3]; [15]
  Plant response rating, Velvetleaf: 80
[3]; [16]
  Plant response rating, Velvetleaf: 100
[4]; [17]
  Plant response rating, Oat, Wild: 35
[4]; [18]
  Plant response rating, Oat, Wild: 50
[4]; [19]
  Plant response rating, Oat, Wild: 70
[4]; [20]
  Plant response rating, Oat, Wild: 85
[5]; [17]
  Plant response rating, Galium: 60
[5]; [18]
  Plant response rating, Galium: 65
[5]; [19]
  Plant response rating, Galium: 85
[5]; [20]
  Plant response rating, Galium: 85
[5]; [21]
  Plant response rating, Galium: 80
[5]; [22]
  Plant response rating, Galium: 98
[5]; [23]
  Plant response rating, Galium: 100
[5]; [24]
  Plant response rating, Galium: 100
[6]; [17]
  Plant response rating, Corn: 20
[6]; [18]
  Plant response rating, Corn: 25
[6]; [19]
  Plant response rating, Corn: 45
[6]; [20]
  Plant response rating, Corn: 55
[6]; [21]
  Plant response rating, Corn: 10
[6]; [22]
  Plant response rating, Corn: 25
[6]; [23]
  Plant response rating, Corn: 25
[6]; [24]
  Plant response rating, Corn: 35
[7]; [17]
  Plant response rating, Johnsongrass: 40
[7]; [19]
  Plant response rating, Johnsongrass: 60
[7]; [20]
  Plant response rating, Johnsongrass: 90
[7]; [21]
  Plant response rating, Johnsongrass: 90
[7]; [22]
  Plant response rating, Johnsongrass: 90
[7]; [23]
  Plant response rating, Johnsongrass: 95
[7]; [24]
  Plant response rating, Johnsongrass: 98
[8]; [17]
  Plant response rating, Kochia: 90
[8]; [18]
  Plant response rating, Kochia: 90
[8]; [19]
  Plant response rating, Kochia: 90
[8]; [20]
  Plant response rating, Kochia: 90
[9]; [17]
  Plant response rating, Lambsquarters: 95
[9]; [18]
  Plant response rating, Lambsquarters: 95
[9]; [19]
  Plant response rating, Lambsquarters: 95
[9]; [20]
  Plant response rating, Lambsquarters: 95
[9]; [21]
  Plant response rating, Lambsquarters: 95
[9]; [22]
  Plant response rating, Lambsquarters: 100
[9]; [23]
  Plant response rating, Lambsquarters: 100
[9]; [24]
  Plant response rating, Lambsquarters: 100
[10]; [17]
  Plant response rating, Pigweed: 95
[10]; [18]
  Plant response rating, Pigweed: 95
[10]; [19]
  Plant response rating, Pigweed: 98
[10]; [20]
  Plant response rating, Pigweed: 98
[10]; [21]
  Plant response rating, Pigweed: 100
[10]; [22]
  Plant response rating, Pigweed: 100
[10]; [23]
  Plant response rating, Pigweed: 100
[10]; [24]
  Plant response rating, Pigweed: 100
[11]; [17]
  Plant response rating, Soybean: 55
[11]; [18]
  Plant response rating, Soybean: 70
[11]; [19]
  Plant response rating, Soybean: 70
[11]; [20]
  Plant response rating, Soybean: 85
[11]; [21]
  Plant response rating, Soybean: 20
[11]; [22]
  Plant response rating, Soybean: 20
[11]; [23]
  Plant response rating, Soybean: 35
[11]; [24]
  Plant response rating, Soybean: 35
[12]; [25]
  Plant response rating, Chickweed: 95
[12]; [26]
  Plant response rating, Chickweed: 95
[12]; [27]
  Plant response rating, Chickweed: 95
[12]; 250 g ai/ha, scale 0 to 100
  Plant response rating, Chickweed: 95
